Test results published in ChEMBL document CHEMBL1201861, “Genomics of Drug Sensitity in Cancer screening data, Wellcome Trust Sanger Institute”.

How the values were obtained:
8505C = assay: cells; assay type: functional, cell-based, Homo sapiens; conditions: Homo sapiens, 8505C
Description: SANGER: Inhibition of human 8505C cell growth in a cell viability assay.

CWR22R = assay: cells; assay type: functional, cell-based, Homo sapiens; conditions: Homo sapiens, 22Rv1;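 also: growth inhibition of 22Rv1 cells, read out with a cell viability assay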
Description: SANGER: Inhibition of human 22RV1 cell growth in a cell viability assay.

COR-L105 = assay: cells; assay type: functional, cell-based, Homo sapiens; conditions: Homo sapiens, COR-L105
Description: SANGER: Inhibition of human COR-L105 cell growth in a cell viability assay.

FaDu = assay: cells; assay type: functional, cell-based, Homo sapiens; conditions: Homo sapiens, FaDu;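 also: cell viability readout of growth inhibition in FaDu cells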
Description: SANGER: Inhibition of human FADU cell growth in a cell viability assay.

H-EMC-SS = assay: cells; assay type: functional, cell-based, Homo sapiens; conditions: Homo sapiens, H-EMC-SS
Description: SANGER: Inhibition of human H-EMC-SS cell growth in a cell viability assay.

DMS-53 = assay: cells; assay type: functional, cell-based, Homo sapiens; conditions: Homo sapiens, DMS-53;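 also: cell viability assay measuring growth inhibition of human DMS-53 cells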
Description: SANGER: Inhibition of human DMS-53 cell growth in a cell viability assay.

SK-N-AS = assay: cells; assay type: functional, cell-based, Homo sapiens; conditions: Homo sapiens, SK-N-AS;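 also: growth inhibition of human SK-N-AS cells, measured with a cell viability assay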
Description: SANGER: Inhibition of human SK-N-AS cell growth in a cell viability assay.

SW900 = assay: cells; assay type: functional, cell-based, Homo sapiens; conditions: Homo sapiens, SW900;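 also: IC50 is the concentration that inhibits SW900 cell growth, measured by a cell viability assay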
Description: SANGER: Inhibition of human SW900 cell growth in a cell viability assay.

SN12C = assay: cells; assay type: functional, cell-based, Homo sapiens; conditions: Homo sapiens, SN12C;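 also: growth inhibition of human SN12C cells, measured by a cell viability assay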
Description: SANGER: Inhibition of human SN12C cell growth in a cell viability assay.

769-P = assay: cells; assay type: functional, cell-based, Homo sapiens; conditions: Homo sapiens, 769-P
Description: SANGER: Inhibition of human 769-P cell growth in a cell viability assay.

NCI-H630 = assay: cells; assay type: functional, cell-based, Homo sapiens; conditions: Homo sapiens, NCI-H630;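 also: growth inhibition of NCI-H630 cells, read out with a cell viability assay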
Description: SANGER: Inhibition of human NCI-H630 cell growth in a cell viability assay.

MES-SA = assay: cells; assay type: functional, cell-based, Homo sapiens; conditions: Homo sapiens, MES-SA;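 also: growth inhibition of human MES-SA cells, read out with a cell viability assay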
Description: SANGER: Inhibition of human MES-SA cell growth in a cell viability assay.

HSC-2 = assay: cells; assay type: functional, cell-based, Homo sapiens; conditions: Homo sapiens, HSC-2;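 also: growth inhibition of human HSC-2 cells, read out by a cell viability assay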
Description: SANGER: Inhibition of human HSC-2 cell growth in a cell viability assay.

NCI-H2291 = assay: cells; assay type: functional, cell-based, Homo sapiens; conditions: Homo sapiens, NCI-H2291
Description: SANGER: Inhibition of human NCI-H2291 cell growth in a cell viability assay.

MEL-JUSO = assay: cells; assay type: functional, cell-based, Homo sapiens; conditions: Homo sapiens, MEL-JUSO;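 also: growth inhibition of human MEL-JUSO cells, read out with a cell viability assay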
Description: SANGER: Inhibition of human MEL-JUSO cell growth in a cell viability assay.

HMV-2 cell line = assay: cells; assay type: functional, cell-based, Homo sapiens; conditions: Homo sapiens, HMV-2;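 also: growth inhibition of HMV-II cells, read out with a cell viability assay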
Description: SANGER: Inhibition of human HMV-II cell growth in a cell viability assay.

MDA-MB-157 = assay: cells; assay type: functional, cell-based, Homo sapiens; conditions: Homo sapiens, MDA-MB-157
Description: SANGER: Inhibition of human MDA-MB-157 cell growth in a cell viability assay.

HCT-116 = assay: cells; assay type: functional, cell-based, Homo sapiens; conditions: Homo sapiens, HCT-116
Description: SANGER: Inhibition of human HCT-116 cell growth in a cell viability assay.

BFTC-909 = assay: cells; assay type: functional, cell-based, Homo sapiens; conditions: Homo sapiens, BFTC-909
Description: SANGER: Inhibition of human BFTC-909 cell growth in a cell viability assay.

T47D = assay: cells; assay type: functional, cell-based, Homo sapiens; conditions: Homo sapiens, T47D;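 also: growth inhibition of human T47D cells, measured with a cell viability assay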
Description: SANGER: Inhibition of human T47D cell growth in a cell viability assay.

NCI-H1975 = assay: cells; assay type: functional, cell-based, Homo sapiens; conditions: Homo sapiens, NCI-H1975
Description: SANGER: Inhibition of human NCI-H1975 cell growth in a cell viability assay.

SW1990 = assay: cells; assay type: functional, cell-based, Homo sapiens; conditions: Homo sapiens, SW1990
Description: SANGER: Inhibition of human SW1990 cell growth in a cell viability assay.

CP67-MEL = assay: SANGER: Inhibition of human CP67-MEL cell growth in a cell viability assay.; assay type: functional, cell-based
COR-L279 = assay: SANGER: Inhibition of human COR-L279 cell growth in a cell viability assay.; assay type: functional, cell-based; conditions: Homo sapiens, COR-L279
CAL-148 = assay: cells; assay type: functional, cell-based, Homo sapiens; conditions: Homo sapiens, CAL-148
Description: SANGER: Inhibition of human CAL-148 cell growth in a cell viability assay.

TALL-1 = assay: cells; assay type: functional, cell-based, Homo sapiens; conditions: Homo sapiens, TALL-1;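 also: growth inhibition of cultured human TALL-1 cells, read out by a cell viability assay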
Description: SANGER: Inhibition of human TALL-1 cell growth in a cell viability assay.

KP-N-RT-BM-1 = assay: SANGER: Inhibition of human KP-N-RT-BM-1 cell growth in a cell viability assay.; assay type: functional, cell-based
EB-3 = assay: cells; assay type: functional, cell-based, Homo sapiens; conditions: Homo sapiens, EB-3;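 also: human EB-3 cells, growth inhibition read out via a cell viability assay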
Description: SANGER: Inhibition of human EB-3 cell growth in a cell viability assay.

EHEB = assay: cells; assay type: functional, cell-based, Homo sapiens; conditions: Homo sapiens, EHEB;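 also: growth inhibition of human EHEB cells, read out with a cell viability assay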
Description: SANGER: Inhibition of human EHEB cell growth in a cell viability assay.

SKM-1 = assay: SANGER: Inhibition of human SKM-1 cell growth in a cell viability assay.; assay type: functional, cell-based
CHP-126 = assay: cells; assay type: functional, cell-based, Homo sapiens; conditions: Homo sapiens, CHP-126
Description: SANGER: Inhibition of human CHP-126 cell growth in a cell viability assay.

NCI-H322M = assay: cells; assay type: functional, cell-based, Homo sapiens; conditions: Homo sapiens, NCI-H322M;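 also: cell viability assay measuring inhibition of growth of human NCI-H322M cells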
Description: SANGER: Inhibition of human NCI-H322M cell growth in a cell viability assay.

NCI-H128 = assay: SANGER: Inhibition of human NCI-H128 cell growth in a cell viability assay.; assay type: functional, cell-based
KARPAS-422 = assay: cells; assay type: functional, cell-based, Homo sapiens; conditions: Homo sapiens, KARPAS-422
Description: SANGER: Inhibition of human KARPAS-422 cell growth in a cell viability assay.

EB2 = assay: cells; assay type: functional, cell-based, Homo sapiens; conditions: Homo sapiens, EB2;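 also: growth inhibition of EB2 cells, read out with a cell viability assay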
Description: SANGER: Inhibition of human EB2 cell growth in a cell viability assay.

BC1 cell line = assay: SANGER: Inhibition of human BC-1 cell growth in a cell viability assay.; assay type: functional, cell-based; conditions: Homo sapiens, BC1
MRK-nu-1 = assay: cells; assay type: functional, cell-based, Homo sapiens; conditions: Homo sapiens, MRK-nu-1;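 also: cell viability assay measuring growth suppression of human MRK-nu-1 cells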
Description: SANGER: Inhibition of human MRK-nu-1 cell growth in a cell viability assay.

C-4-II = assay: SANGER: Inhibition of human C-4-II cell growth in a cell viability assay.; assay type: functional, cell-based; conditions: Homo sapiens, C-4-II
NCI-H1734 = assay: cells; assay type: functional, cell-based, Homo sapiens; conditions: Homo sapiens, NCI-H1734;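 also: growth inhibition of human NCI-H1734 cells, read out with a cell viability assay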
Description: SANGER: Inhibition of human NCI-H1734 cell growth in a cell viability assay.

NCI-H1618 = assay: cells; assay type: functional, cell-based, Homo sapiens; conditions: Homo sapiens, NCI-H1618;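 also: growth inhibition of human NCI-H1618 cells, measured by a cell viability assay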
Description: SANGER: Inhibition of human NCI-H1618 cell growth in a cell viability assay.

EFE-184 = assay: cells; assay type: functional, cell-based, Homo sapiens; conditions: Homo sapiens, EFE-184
Description: SANGER: Inhibition of human EFE-184 cell growth in a cell viability assay.

DV-90 = assay: cells; assay type: functional, cell-based, Homo sapiens; conditions: Homo sapiens, DV-90;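 also: Read-out is a viability assay, with IC50 reflecting the drop in DV-90 cell growth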
Description: SANGER: Inhibition of human DV-90 cell growth in a cell viability assay.

P12-Ichikawa = assay: cells; assay type: functional, cell-based, Homo sapiens; conditions: Homo sapiens, P12-Ichikawa
NCI-H838 = assay: cells; assay type: functional, cell-based, Homo sapiens; conditions: Homo sapiens, NCI-H838;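 also: growth inhibition of human NCI-H838 cells, read out by a cell viability assay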
Description: SANGER: Inhibition of human NCI-H838 cell growth in a cell viability assay.

ECC10 = assay: cells; assay type: functional, cell-based, Homo sapiens; conditions: Homo sapiens, ECC10;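 also: growth inhibition of ECC10 cells, read out by a cell viability assay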
Description: SANGER: Inhibition of human ECC10 cell growth in a cell viability assay.

TI-73 = assay: cells; assay type: functional, cell-based, Homo sapiens; conditions: Homo sapiens, TI-73;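 also: cell viability assay measuring how much compounds suppress growth of the cultured cell line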
Description: SANGER: Inhibition of human TI-73 cell growth in a cell viability assay.

BALL-1 = assay: cells; assay type: functional, cell-based, Homo sapiens; conditions: Homo sapiens, BALL-1;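 also: growth inhibition of BALL-1 cells, read out with a cell viability assay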
Description: SANGER: Inhibition of human BALL-1 cell growth in a cell viability assay.

NBsusSR = assay: cells; assay type: functional, cell-based, Homo sapiens; conditions: Homo sapiens, NBsusSR;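 also: growth inhibition of the human cell line, read out with a cell viability assay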
Description: SANGER: Inhibition of human NBsusSR cell growth in a cell viability assay.

LU-135 = assay: cells; assay type: functional, cell-based, Homo sapiens; conditions: Homo sapiens, LU-135
Description: SANGER: Inhibition of human LU-135 cell growth in a cell viability assay.

| SMILES | IC50 (8505C) [nM] | IC50 (CWR22R) [nM] | IC50 (COR-L105) [nM] | IC50 (FaDu) [nM] | IC50 (H-EMC-SS) [nM] | IC50 (DMS-53) [nM] | IC50 (SK-N-AS) [nM] | IC50 (SW900) [nM] | IC50 (SN12C) [nM] | IC50 (769-P) [nM] | IC50 (NCI-H630) [nM] | IC50 (MES-SA) [nM] | IC50 (HSC-2) [nM] | IC50 (MEL-JUSO) [nM] | IC50 (HMV-2 cell line) [nM] | IC50 (MDA-MB-157) [nM] | IC50 (HCT-116) [nM] | IC50 (BFTC-909) [nM] | IC50 (T47D) [nM] | IC50 (SW1990) [nM] | also measured |
| --- | --- | --- | --- | --- | --- | --- | --- | --- | --- | --- | --- | --- | --- | --- | --- | --- | --- | --- | --- | --- | --- |
| CC(C)c1ccccc1Cc1cc(C(=O)Nc2ccc(S(=O)(=O)c3ccccc3C(C)(C)C)cc2)c(O)c(O)c1O | 221 | 1030 | 711 | 526 | 378 | 1320 | 181 | 2770 | 1110 | 137 | 808 | 1110 | 664 | 439 | 309 | 841 | 52.7 | 258 | 691 | 1670 | IC50 (NCI-H2291): 21 µM; IC50 (NCI-H1975): 1380 nM |
| OCCCNc1cc(-c2ccnc(Nc3cccc(Cl)c3)n2)ccn1 |  |  |  |  |  |  |  |  |  |  |  |  |  |  |  |  |  |  |  |  | IC50 (CP67-MEL): 52 nM; IC50 (COR-L279): 171 nM; IC50 (CAL-148): 199 nM; IC50 (TALL-1): 94.1 nM; IC50 (KP-N-RT-BM-1): 148 nM; IC50 (EB-3): 64.8 nM; IC50 (EHEB): 191 nM; IC50 (SKM-1): > 256 nM; IC50 (CHP-126): 135 nM; IC50 (NCI-H322M): > 256 nM; IC50 (NCI-H128): > 256 nM; IC50 (KARPAS-422): 57.2 nM; IC50 (EB2): > 256 nM; IC50 (BC1 cell line): 69.5 nM; IC50 (MRK-nu-1): 37.3 nM |
| N#Cc1c(O)c2c(-c3ccc(-c4ccccc4O)cc3)csc2[nH]c1=O | > 1020 | > 1020 | > 1020 | > 1020 |  | > 1020 | > 1020 |  | > 1020 | > 1020 | > 1020 | > 1020 | > 1020 | > 1020 | > 1020 | 824 | > 1020 | > 1020 | > 1020 | > 1020 | IC50 (COR-L279): 253 nM; IC50 (CAL-148): 223 nM; IC50 (C-4-II): > 1020 nM; IC50 (TALL-1): > 1020 nM; IC50 (NCI-H1734): > 1020 nM; IC50 (EB-3): 293 nM; IC50 (EHEB): 63.3 nM; IC50 (CHP-126): 269 nM; IC50 (NCI-H322M): > 1020 nM; IC50 (NCI-H1618): > 1020 nM; IC50 (EFE-184): > 1020 nM; IC50 (DV-90): > 1020 nM; IC50 (P12-Ichikawa): 489 nM; IC50 (KARPAS-422): 344 nM; IC50 (EB2): 142 nM; IC50 (NCI-H838): > 1020 nM; IC50 (BC1 cell line): 69.7 nM; IC50 (MRK-nu-1): 178 nM |
| Nc1cccc2c1CN(C1CCC(=O)NC1=O)C2=O (centres undefined) [LENALIDOMIDE] | > 5000 | > 5000 | > 5000 | > 5000 | > 5000 |  | > 5000 | > 5000 | > 5000 | > 5000 | > 5000 |  | > 5000 | > 5000 | > 5000 | > 5000 | > 5000 | > 5000 | > 5000 | > 5000 | IC50 (ECC10): > 5 µM; IC50 (TI-73): > 5 µM; IC50 (NCI-H2291): > 5 µM; IC50 (P12-Ichikawa): > 5000 nM; IC50 (BALL-1): > 5 µM; IC50 (NBsusSR): > 5 µM; IC50 (LU-135): > 5 µM; IC50 (NCI-H1975): > 5000 nM |
